Data: patent US6969600B2, “Carbonyl reductase, method for producing said enzyme, DNA encoding said enzyme, and method for producing alcohol using said enzyme” (Daicel Chemical Industries, Ltd., priority 1998, dated 2005)

Key:
carbonyl reductase [1] = experiment: Influence of inhibitors on the carbonyl reductase (residual reductase activity); type: biochemical, Kluyveromyces aestuarii; conditions: for Residual activity: 30, 10 min, activity without any reagent taken as 100
Experimental: (§1) A decrease of absorbance at 340 nm, following a decrease of NADH, is measured during the reaction at 30 in a reaction mixture containing 50 mM potassium phosphate buffer (pH 6.5), 0.2 mM NADH, 20 mM ethyl 4-chloroacetoacetate, and the enzyme. One unit of the enzyme of the present invention is defined as the amount required to decrease […] of NADH in 1 min. A protein is quantitated by the dye-binding method using a Protein Assay Kit (BioRad).
The enzyme obtained in Example 1 was incubated at 30 for 10 min in the presence of various reagents, and its reductase activity to […] was measured. The results are shown in Table 3 as the residual activity to that obtained without any reagent that is taken as 100.

carbonyl reductase [2] = experiment: Substrate specificity: reductase activity with various ketones and aldehydes in the presence of a coenzyme; type: biochemical, Kluyveromyces aestuarii; set-up: concentration or dose not given beside the values; conditions: reduction reaction, ethyl 4-chloroacetoacetate with NADH taken as 100
Experimental: as §1
(§2) The reductase activity of the enzyme obtained in Example 1 was measured by reacting the enzyme with various ketones and aldehydes in the presence of a coenzyme. The results are shown in Table 2 as the activity relative to that of ethyl 4-chloroacetoacetate in the presence of NADH that is taken as 100.

carbonyl reductase [3] = experiment: Substrate specificity: NAD+-dependent dehydrogenase (oxidation) activity; type: biochemical, Kluyveromyces aestuarii; set-up: Relative activity (%): concentration or dose not given beside the values; conditions: for Relative activity (%): oxidation reaction, coenzyme NAD+, reduction of ethyl 4-chloroacetoacetate with NADH taken as 100; for NAD+-dependent dehydrogenase activity (in words): substrate with NAD+
Experimental: The enzyme contacts the substrate, 4-halo-3-hydroxybutyrate ester, in the presence of NAD^+, and the change (per unit time) of the absorbance at 340 nm, which is accompanied with an increase or decrease of NADH, is measured.
as §2

[4] = 4-chloroacetoacetate ester-reducing activity of the purified enzyme; type: biochemical, Kluyveromyces aestuarii; conditions: 20 mM ethyl 4-chloroacetoacetate, 0.2 mM NADH, pH 6.5; after Superdex 200
Experimental: as §1
Kluyveromyces aestuarii IFO 10597 was cultured in 20 L of YM medium containing 24 g/L glucose, 3 g/L yeast extract, 3 g/L malt extract, and 5 g/L peptone (pH 6.0). The cultured cells were harvested by centrifugation. […]
The activity of the carbonyl reductase was detected in three fractions, a passed-through fraction and two gradient-eluted fractions. […]
The concentrated enzyme solution was adjusted to 20% saturation with ammonium sulfate and was applied to a butyl-Toyopearl 650M column (1.6 cm×5 cm) equilibrated with the standard buffer containing 20% saturation ammonium sulfate. […] The peak of the activity of the carbonyl reductase was detected in two eluted fractions. […]
The active fractions obtained by gel filtration were concentrated and analyzed by polyacrylamide gel electrophoresis (PAGE). The enzyme was detected as a substantially single band (FIG. 1). […]

[5] = type: physicochemical, Kluyveromyces aestuarii
Experimental: The enzyme obtained in Example 1 was incubated at pH 8.0 for 10 min at 30, 37, 45, 50, and 55; the reductase activity of each incubation mixture to ethyl 4-chloroacetoacetate was then measured. The results are shown in FIG. 5 as the residual activity to the activity of the untreated enzyme that is taken as 100.

O=S(=O)(F)Cc1ccccc1 [Phenylmethanesulfonyl fluoride]
Residual activity (carbonyl reductase [1]; inhibitor 1 mM): 99.0

O=C(O)c1cc[c]([Hg][Cl])cc1 [p-chloromercuribenzoic acid]
Inhibition of the carbonyl reductase (in words) (carbonyl reductase [1]): significantly inhibited
Residual activity (carbonyl reductase [1]; inhibitor 0.05 mM): 0

O=S(=O)([O-])[O-].[Cu+2] [copper sulfate]
Inhibition of the carbonyl reductase (in words) (carbonyl reductase [1]): significantly inhibited
Residual activity (carbonyl reductase [1]; inhibitor 1 mM): 19.0

CC(=O)C=O [Methylglyoxal]
Relative activity (%) (carbonyl reductase [2]; coenzyme NADH): 0%

CCOC(=O)C[C@@H](C)O [ethyl (R)-3-hydroxybutyrate]
Relative activity (%) (carbonyl reductase [3]): 1.9%

CCOC(=O)C[C@H](O)CCl [ethyl (S)-4-chloro-3-hydroxybutyrate]
Relative activity (%) (carbonyl reductase [3]): 0%
NAD+-dependent dehydrogenase activity (in words) (carbonyl reductase [3]): did not show any

CC(C)O [Isopropanol]
Relative activity (%) (carbonyl reductase [3]): 0%
NAD+-dependent dehydrogenase activity (in words) (carbonyl reductase [3]): does not substantially dehydrogenate

O=Cc1cccnc1 [pyridin-3-aldehyde]
Relative activity (%) (carbonyl reductase [2]; coenzyme NADH): 0%

CC(=O)c1ccccc1 [Acetophenone]
Relative activity (%) (carbonyl reductase [2]; coenzyme NADH): 0%

CCC1(CC)C(=O)NC(=O)NC1=O [barbital]
Inhibition of the carbonyl reductase (in words) (carbonyl reductase [1]): not and not inhibited
Residual activity (carbonyl reductase [1]; inhibitor 1 mM): 101

CCOC(=O)C[C@H](C)O [ethyl (S)-3-hydroxybutyrate]
Relative activity (%) (carbonyl reductase [3]): 0%

CCC(=O)C(C)=O [2,3-pentandione]
Relative activity (%) (carbonyl reductase [2]; coenzyme NADH): 8.2%

CCOC(=O)CC(C)=O [ethyl acetoacetate]
Relative activity (%) (carbonyl reductase [2]; coenzyme NADH): 0%

NC(=O)CI [iodoacetamide]
Inhibition of the carbonyl reductase (in words) (carbonyl reductase [1]): weakly inhibited
Residual activity (carbonyl reductase [1]; inhibitor 1 mM): 84.0

CC(=O)CC(C)=O [2,4-pentandione]
Relative activity (%) (carbonyl reductase [2]; coenzyme NADH): 0%

O=c1c(O)c(-c2ccc(O)c(O)c2)oc2cc(O)cc(O)c12 [quercetin]
Inhibition of the carbonyl reductase (in words) (carbonyl reductase [1]): not and not inhibited
Residual activity (carbonyl reductase [1]; inhibitor 0.1 mM): 94.0

COC(=O)CC(C)=O [methyl acetoacetate]
Relative activity (%) (carbonyl reductase [2]; coenzyme NADH): 0%

CCOC(=O)C[C@@H](O)CCl [ethyl (R)-4-chloro-3-hydroxybutyrate]
Relative activity (%) (carbonyl reductase [3]): 0%
NAD+-dependent dehydrogenase activity (in words) (carbonyl reductase [3]): did not show any

CC(=O)C(C)=O [2,3-butandione]
Relative activity (%) (carbonyl reductase [2]; coenzyme NADH): 70.6%

CCOC(=O)CC(=O)CCl [ethyl 4-chloroacetoacetate]
Relative activity (%) (carbonyl reductase [2]; coenzyme NADH): 100%
Relative activity (%) (carbonyl reductase [2]; coenzyme NADPH): 6.4%

COC(=O)CC(=O)CCl [methyl 4-chloroacetoacetate]
Relative activity (%) (carbonyl reductase [2]; coenzyme NADH): 13.1%

CCC=O [Propionaldehyde]
Relative activity (%) (carbonyl reductase [2]; coenzyme NADH): 2.5%

B1: carbonyl reductase: NADH-dependent carbonyl reductase purified from Kluyveromyces aestuarii IFO 10597; amino acid sequence SEQ ID NO: 2 (protein, listed as Kluyveromyces aestuarii)
chain: MTFQHFLRGGLEDKTVPQEPPKEQYPDGVNYLSLFSQKGKLTVITGGAGAIGGALCEGFASCGSDVVILDYKYSPELSSVLESRYGVRSKSYQVDITSSEDVKLVVAKILEDFPDRDINTFVANAGIAWTNGSILNENATPDVWKRVMDVNVQGTYHCAKYVAEVFKQQGHGNLILTASMSSYISNVPNYQTCYNASKAAVRHMAKGFAVEFAHLTNPAGKIRCNSVSPGYTDTALSAFVPVEQRAQWWGLTPMGREALPQELVGAYLYLASDAASFTNGCDIQVDGGYTCV
Specific activity of the purified enzyme [4]: about 28.6 U/mg
Thermostability (relatively stable up to) [5]: up to 40
Residual activity after heat incubation ([5]; pH 8.0, 10 min, up to 37, untreated enzyme taken as 100): ≥ 75%
